What was measured:
[1] = test system: heart sections; experiment: Detection of apoptosis in heart sections (TUNEL assay); format: in vivo, mouse; details: after acute doxorubicin treatment
Description: Apoptosis was detected by using TUNEL assay on heart sections. Heart harvest, sectioning, and storage were described above. Heart sections were warmed to room temperature before the apoptotic nuclei were stained by using a commercially available kit (In Situ Cell Death Detection Kit, Cat. No. 12156792910, Roche Applied Science). The entire staining procedures were performed according to the manufacturer's instructions. The nuclei were stained with DAPI (Sigma) before the slides were sealed and examined with an Olympus epifluorescence microscope (Model BX51). The apoptotic nuclei and the total nuclei per heart section were counted at 200× magnification. The apoptotic nuclei in 5 heart sections of each mouse were counted and averaged.
The cardio-protective effect of Dex against doxirubin-induced apoptosis was assessed in heart tissues. Dexrazoxane (100 mg/kg) was injected (ip) 8 hrs prior to doxorubicin (25 mg/kg) injection (ip). One group received only doxorubicin and a second group received only dexrazoxane. Hearts were harvested 16 hrs after doxorubicin treatment. The numbers of TUNEL-positive nuclei were counted in five fields in each heart section.

[2] = test system: heart sections; experiment: Transmission electron microscopy of heart sections; format: in vivo, mouse; details: for Ultra-structural changes of mitochondria (electron microscopy): doxorubicin 25 mg/kg for 72 h
Description: To examine doxorubicin-induced ultra-structural damages, wildtype and mice with Top2 deletion in the cardiomyocytes were treated with doxorubicin (25 mg/kg for 72 h or 5 mg/kg once a week for 5 weeks) or drug vehicle. Heart was quickly removed. After rinse with PBS and blot dried, 10-20 pieces of tissue samples (1×2×2 mm) were taken from the myocardium of the left ventricle. Tissue samples were immediately fixed in 3% phosphate glutaraldehyde. Before sectioning, tissue samples were washed in […] sodium phosphate buffer (pH 7.3), post fixed in 1% osmium tetroxide for 1 h and dehydrated through a series of graded alcohol. Then tissue samples were infiltrated with acetone and phlybed 812 plastic resin and embedded in plastic block molds with 100% polybed 812. One micron sections (thick sections) were cut on ultra microtome and placed on glass slides and stained with toluidine blue. Ultra thin sections (80 nm) were cut from sample blocks using a RMC MTXL Ultra Microtome and mounted on 100 mesh copper grids. Grids were stained with 2% uranyl acetate and Reynold's lead stain. 9 sections were analyzed from each animal heart. Grids were examined with a JEOL 1230 electron microscope and images were capture with an AMTV 600 imaging system.

[3] = test system: HL-1 cells; experiment: PGC-1 expression in HL-1 cells by RT-qPCR; format: cell-based; details: doxorubicin 1 μm for 2 or 4 hours
Description: FIGS. 7a-e: a, b. PGC-1 expression in HL-1 cells. […] Expression was measured with RT-qPCR. c, d. CHiP analysis in HL-1 cells. HL-1 cardiomyocytes were treated with (right bars) or without (left bars) DOX ([…]) for 2 hrs and isolated for ChIP using the Top2β antibody. The eluted DNA and Input were PCR amplified to detect specific promoter regions represented in the schematic above the respective ChIP data. […] CHiP study in cardiomyocytes. Cardiomyocytes were isolated from control (n=4) and Dox-treated (n=4) mice and subject to ChIP with the Top2b antibody. The data represent real-time PCR ratios for the fold-enrichment of Top2b at the respective promoters.

[4] = test system: PGC-1α and PGC-1β promoters; experiment: Chromatin immunoprecipitation with Top2b antibody at PGC-1 promoters; format: cell-based, mouse; details: HL-1 cells (DOX 2 h) and cardiomyocytes isolated 16 h after 25 mg/kg ip
Description: FIGS. 7a-e: a, b. PGC-1 expression in HL-1 cells. […] Expression was measured with RT-qPCR. c, d. CHiP analysis in HL-1 cells. HL-1 cardiomyocytes were treated with (right bars) or without (left bars) DOX ([…]) for 2 hrs and isolated for ChIP using the Top2β antibody. The eluted DNA and Input were PCR amplified to detect specific promoter regions represented in the schematic above the respective ChIP data. In the presence of DOX, the Top2b is readily bound to Region #1 and Region #3 of the PGC-1α promoter (c) and Region #1 and #2 of the PGC-1β promoter (d). e. CHiP study in cardiomyocytes. Cardiomyocytes were isolated from control (n=4) and Dox-treated (n=4) mice and subject to ChIP with the Top2b antibody. The data represent real-time PCR ratios for the fold-enrichment of Top2b at the respective promoters. Top2β binds the Region #1 of the PGC-1α and PGC-1β promoters efficiently following Dox treatment.
HL-1 cells were treated with or without DOX (1 μM) for 2 h and subsequently evaluated using the ChIP protocol as previously published (24-26). For ChIP assay on isolated cardiomyocytes, mice were treated with doxorubicin (25 mg/kg, ip) or drug vehicle. […] For each individual treatment sample, the eluted ChIP product was normalized to the Input product to rule out differences in total DNA quantities between control and Dox-treatment samples. […]

[5] = test system: mouse heart; experiment: Cardiac MRI for measuring cardiac function after chronic doxorubicin; details: mice, doxorubicin 5 mg/kg ip once a week for 5 weeks; decreased from 57% (Example 4, FIG. 13)
Description: Before Cre induction, cardiac MRI scan was performed on each mouse to examine the baseline ejection fraction. Cardiomyocyte-specific Cre induction was carried out by treating mice with tamoxifen. […] Doxorubicin treatment (5 mg/kg, i.p., once a week for 5 weeks) was started 7 days after the second MRI scan. Two weeks after the last dose of doxorubicin, a third MRI scan was performed (FIG. 6a).
Every mouse in the EF experiments received 3 MRI scans, i.e., a baseline scan, a second scan 2 weeks after the end of tamoxifen treatment, and a third scan 2 weeks after the last dose of doxorubicin. […] Mice were anesthetized with isoflurane (2.5% in 97.5% O2), and scanned on a 7.0 T Biospec small animal scanner (Bruker Biospin Inc., Billerica, Mass.). Imaging gradients with 60 mm inner diameter (ID) were used with a 35 mm ID linear birdcage-style volume resonator. T1-weighted anatomic reference images were acquired using a three dimension (3D) fast low-angle shot (FLASH) gradient echo sequence. A retrospectively gated FLASH pulse sequence was used to acquire cardiac cine images with excellent contrast between bright blood and adjacent myocardium. To measure volumetric left ventricular ejection fraction (LVEF), at least 6 short axis images were scanned at 1 mm interval from the apex to the base of the heart. End-diastolic (ED) and end-systolic (ES) left ventricular volumes were obtained by the biplane area length method, and LVEF was calculated with the equation: [(ED-ES)/ED]/100.
Two weeks after completion of tamoxifen treatment mice were treated with doxorubicin or drug vehicle. Two cohorts of mice were treated with different schedules. […] To evaluate the chronic effect of doxorubicin on cardiac function, doxorubicin (5 mg/kg, i.p.) was administered once a week for 5 weeks, and cardiac function was examined 2 weeks after the last dose of doxorubicin by using MRI.
The effect of chronic doxorubicin treatment (5 mg/kg, ip, once a week for 5 weeks) was evaluated for its effect on ejection fraction.

COc1cccc2c1C(=O)c1c(O)c3c(c(O)c1C2=O)C[C@@](O)(C(=O)CO)C[C@@H]3O[C@H]1C[C@H](N)[C@H](O)[C@H](C)O1 [doxorubicin]
Reduction of TUNEL-positive nuclei in hearts of Top2bΔ/Δ mice compared with Top2b+/+ mice [1]: 70%
Ultrastructural changes in mitochondria (EM) ([2]; Top2b+/+ hearts, chronic doxorubicin 5 mg/kg once a week for 5 weeks): ultrastructural changes in mitochondria
Ultra-structural changes of mitochondria (electron microscopy) ([2]; Top2b+/+ mouse heart): marked mitochondria damage and vacuolization
Ultra-structural changes of mitochondria (electron microscopy) ([2]; Top2bΔ/Δ heart): minimal ultra-structural changes
Expression of PGC-1α [3]: Reduced expression
Expression of PGC-1β [3]: Reduced expression
Top2b binding to the promoter of the PGC-1α and PGC-1β genes in the presence of doxorubicin (ChIP) [4]: binds avidly
Ejection fraction after treatment [5]: 45%

— US9169509B2, “Topoisomerase 2b as a predictor of susceptibility to anthracycline-induced cardiotoxicity” (Board of Regents, The University of Texas System, priority 2013, dated 2015)
